One data set has as its target EGFR-TK (Homo sapiens, UniProt P00533). Put plainly: EGFR inhibition assay (HT Scan EGFR kinase assay kit).
The next data set has as its system MDA-MBA-231. In words: In vitro cytotoxic screening (MTT assay), MDA-MBA-231. The class given is cell-based, human. As to conditions: mean ± SD; for IC50: 24 h, MTT assay, MDA-MBA-231 cell line; for Selectivity index S1: S1 = IC50 (MCF-7)/IC50 (MDA-MBA-231). How it is done:
(§1) Cell lines were obtained from American Type Culture Collection, cells were cultured using DMEM (Invitrogen Life Technologies, Waltham, MA, USA) supplemented with 10% FBS (Hyclone, Logan, UT, USA), 10 µg/mL of insulin (Sigma, St. Louis, MO, USA), and 1% penicillin-streptomycin. […] At the end of the incubation, the cells were harvested and washed with PBS. 20 µL of MTT was added to each well and incubated for 2 h before 200 µL DMSO was added. The absorbance was measured on an ELISA reader (Multiskan EX, Lab systems, Waltham, MA, USA) at wavelength of 570 nm.
(§2) All assays were performed in triplicate. The results were expressed as mean ± SD (standard deviation) using Student’s t test.

For a further data set, the system named is MCF-7. Put plainly: In vitro cytotoxic screening (MTT assay), MCF-7. It counts as cell-based, human. As to conditions: for IC50: Homo sapiens, MCF7, MTT assay, 24 h, MCF-7 cell line; for IC50 / Selectivity index S2: mean ± SD; for Cell line selectivity: S1 > S2: more selective to MDA-MBA-231, S2 > S1: more selective to MCF-7; for Selectivity index S2: S2 = IC50 (MDA-MBA-231)/IC50 (MCF-7). How it is done: as §1, §2

Entries after “also recorded” stand apart in the source; their conditions may differ.

EGFR-TK, sequence (P00533 25-1210): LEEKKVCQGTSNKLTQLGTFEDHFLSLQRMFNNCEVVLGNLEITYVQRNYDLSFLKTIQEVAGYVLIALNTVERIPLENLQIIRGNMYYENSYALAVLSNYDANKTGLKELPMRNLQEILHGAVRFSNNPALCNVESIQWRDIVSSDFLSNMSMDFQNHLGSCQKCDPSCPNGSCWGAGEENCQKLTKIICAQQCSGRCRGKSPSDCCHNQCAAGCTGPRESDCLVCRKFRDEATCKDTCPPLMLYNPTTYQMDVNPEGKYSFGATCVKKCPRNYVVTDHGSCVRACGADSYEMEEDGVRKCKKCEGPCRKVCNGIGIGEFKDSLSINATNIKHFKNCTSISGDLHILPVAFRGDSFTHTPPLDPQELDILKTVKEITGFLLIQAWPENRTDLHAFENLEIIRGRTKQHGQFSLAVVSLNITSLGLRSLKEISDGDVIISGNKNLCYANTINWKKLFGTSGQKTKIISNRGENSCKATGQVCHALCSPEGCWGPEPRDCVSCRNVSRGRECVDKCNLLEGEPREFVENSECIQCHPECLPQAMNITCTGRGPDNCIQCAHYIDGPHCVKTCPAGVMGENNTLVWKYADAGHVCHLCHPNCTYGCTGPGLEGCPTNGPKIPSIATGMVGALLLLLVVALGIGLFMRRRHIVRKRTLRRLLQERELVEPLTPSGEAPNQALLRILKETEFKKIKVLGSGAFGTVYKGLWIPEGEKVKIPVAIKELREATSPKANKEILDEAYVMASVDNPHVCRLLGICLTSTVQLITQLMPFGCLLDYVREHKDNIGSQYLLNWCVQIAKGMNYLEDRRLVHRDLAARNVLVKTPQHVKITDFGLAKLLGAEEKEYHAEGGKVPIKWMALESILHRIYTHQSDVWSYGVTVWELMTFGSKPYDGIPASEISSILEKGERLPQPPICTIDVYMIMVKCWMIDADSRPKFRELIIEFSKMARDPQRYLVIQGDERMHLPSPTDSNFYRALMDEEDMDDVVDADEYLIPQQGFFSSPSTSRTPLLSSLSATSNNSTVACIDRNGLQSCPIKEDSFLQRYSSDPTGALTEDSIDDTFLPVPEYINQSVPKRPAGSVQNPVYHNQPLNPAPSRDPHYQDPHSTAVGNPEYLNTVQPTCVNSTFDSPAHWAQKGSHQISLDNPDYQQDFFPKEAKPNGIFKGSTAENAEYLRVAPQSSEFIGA
Procedure for EGFR-TK: EGFR kinase activity was measured by HT Scan EGFR kinase assay kits (Cell Signaling Technology, Danvers, MA, USA). The experiments were performed following the manufacturer’s directions. […] Strapavidin-coated 96-well plates were used to take phosphorylated substrate. Anti-phosphotyrosine and europium-labeled secondary antibodies (DELFIA, Perkin-Elmer, Akron, OH, USA) were used to monitor the level of phosphorylation.

Consider `O=C1Nc2ccccc2/C1=N\n1c(-c2ccc(F)cc2)nc2ccc(F)cc2c1=O` [Compound 6, 3-(3-Iminoindolin-2-one)-6-fluoro-2-(4-flurophenyl)quinazoline-4(3H)-one], for which the melting point lay within 223 to 225 °C. The IC50 against EGFR-TK worked out at 75.2 ± 0.08 nM. Moreover, in the data set on MDA-MBA-231 (Homo sapiens), inhibition was half-maximal at 1380 ± 140 nM (IC50). The “Selectivity index S1” value with MDA-MBA-231 is reported as 0.25 ± 0.06. Also, in the data set with MCF-7, the IC50 stood at 350 ± 10 nM, the Cell line selectivity entry is recorded as “more selective to MCF-7 than MDA-MBA-231; also recorded: MCF-7 selective” and the “Selectivity index S2” value is 3.94 ± 0.26.

Molecule `O=c1c2cc(F)ccc2nc(-c2ccc(F)cc2)n1N=Cc1ccco1` [Compound 7, 3-((Furan-2-yl)methyleneamino)-6-fluoro-2-(4-fluorophenyl)quinazolin-4(3H)-one] displayed a melting point of 228 to 230 °C. In the data set with MDA-MBA-231 (Homo sapiens), this molecule came in with an IC50 of 940 ± 70 nM. The “Selectivity index S1” value with MDA-MBA-231 is 1.13 ± 0.09. For the same molecule, in the data set with MCF-7, the midpoint of inhibition, the IC50, lay at 1060 ± 30 nM; the Cell line selectivity entry is “more selective to MDA-MBA-231 than MCF-7; also recorded: MDA-MBA-231 selective”; the “Selectivity index S2” value amounted to 0.89 ± 0.18.

Molecule `O=c1c2cc(F)ccc2nc(-c2ccc(F)cc2)n1N=CC=Cc1ccccc1` [Compound 8, 3-(3-Phenylallylideneamino)-6-fluoro-2-(4-fluorophenyl)quinazolin-4(3H)-one] came in with a melting point of 220 to 222 °C. The molecule further returned an IC50 in the data set on MDA-MBA-231 (Homo sapiens) of 21600 ± 1400 nM. Also, in the data set on MDA-MBA-231, the “Selectivity index S1” value came out at 1.69 ± 0.15. Further, in the data set on MCF-7, the IC50 worked out at 36600 ± 1810 nM, the Cell line selectivity result is reported as “more selective to MDA-MBA-231 than MCF-7; also recorded: MDA-MBA-231 selective” and the “Selectivity index S2” value stood at 0.59 ± 0.02.

`O=c1c2cc(F)ccc2nc(-c2ccc(F)cc2)n1N=Cc1ccccc1` [Compound 10a, 3-(Benzylideneamino)-6-fluoro-2-(4-fluorophenyl)quinazolin-4(3H)-one] gave a melting point of 218 to 220 °C. This molecule also gave an IC50 in the data set with MDA-MBA-231 (Homo sapiens) of 2480 ± 170 nM. Further, the “Selectivity index S1” value with MDA-MBA-231 was found to be 0.39 ± 0.01. For the same molecule, in the data set on MCF-7, the IC50 stood at 950 ± 10 nM, the Cell line selectivity result was “more selective to MCF-7 than MDA-MBA-231; also recorded: MCF-7 selective” and the “Selectivity index S2” value is listed as 2.61 ± 0.09.

As to `Cc1ccc(C=Nn2c(-c3ccc(F)cc3)nc3ccc(F)cc3c2=O)cc1` [Compound 10b, 3-(4-Methylbenzylideneamino)-6-fluoro-2-(4-fluorophenyl)quinazoline-4(3H)-one], the melting point was 231 to 233 °C. In addition, the IC50 in the data set with MDA-MBA-231 (Homo sapiens) was 3090 ± 80 nM. In addition, the “Selectivity index S1” value in the data set with MDA-MBA-231 is on record as 1.64 ± 0.21. In the data set on MCF-7, inhibition was half-maximal at 5070 ± 330 nM (IC50), the Cell line selectivity entry is given as “more selective to MDA-MBA-231 than MCF-7; also recorded: MDA-MBA-231 selective” and the “Selectivity index S2” value was determined as 0.61 ± 0.06.

`COc1ccc(C=Nn2c(-c3ccc(F)cc3)nc3ccc(F)cc3c2=O)cc1` [Compound 10c, 3-(4-Methoxybenzylideneamino)-6-fluoro-2-(4-fluorophenyl)quinazolin-4(3H)-one] gave a melting point of 228 to 230 °C. Moreover, the IC50 in the data set with MDA-MBA-231 (Homo sapiens) is 1090 ± 10 nM. For the same molecule, the “Selectivity index S1” value in the data set with MDA-MBA-231 was determined as 9.57 ± 0.11. For the same molecule, in the data set with MCF-7, the IC50 amounted to 10400 ± 1140 nM, the Cell line selectivity result is given as “more selective to MDA-MBA-231 than MCF-7; also recorded: MDA-MBA-231 selective” and the “Selectivity index S2” value is 0.10 ± 0.13.

With `O=c1c2cc(F)ccc2nc(-c2ccc(F)cc2)n1N=Cc1ccc(F)cc1` [Compound 10d, 3-(4-Fluorobenzylideneamino)-6-fluoro-2-(4-fluorophenyl)quinazolin-4(3H)-one], the melting point was in the range of 232 to 234 °C. Moreover, 382 ± 10 nM corresponded to half-maximal inhibition in the data set on MDA-MBA-231 (Homo sapiens) (IC50). Also, in the data set with MDA-MBA-231, the IC50 came out at 380 ± 10 nM and the “Selectivity index S1” value is on record as 2.34 ± 0.05. Also, in the data set with MCF-7, the IC50 came out at 890 ± 20 nM, the Cell line selectivity entry was “more selective to MDA-MBA-231 than MCF-7; also recorded: MDA-MBA-231 selective” and the “Selectivity index S2” value was 0.43 ± 0.09.

`O=c1c2cc(F)ccc2nc(-c2ccc(F)cc2)n1N=Cc1ccc([N+](=O)[O-])cc1` [Compound 10e, 3-(4-Nitrobenzylideneamino)-6-fluoro-2-(4-fluorophenyl)quinazolin-4(3H)-one] displayed a melting point of 235 to 237 °C. This molecule also gave an IC50 on EGFR-TK of 170.08 ± 0.02 nM. Besides, the “Selectivity index S1” value in the data set on MDA-MBA-231 was 9.32 ± 0.08. In the data set with MCF-7, half-maximal inhibition (IC50) was put at 2610 ± 140 nM, the Cell line selectivity entry was “more selective to MDA-MBA-231 than MCF-7; also recorded: MDA-MBA-231 selective” and the “Selectivity index S2” value is 0.11 ± 0.17.

In turn, `O=c1c2cc(F)ccc2nc(-c2ccc(F)cc2)n1N=Cc1ccc(Cl)cc1` [Compound 10f, 3-(4-Chlorobenzylideneamino)-6-fluoro-2-(4-fluorophenyl)quinazolin-4(3H)-one] returned a melting point of 224 to 226 °C. In the data set on MDA-MBA-231 (Homo sapiens), the midpoint of inhibition, the IC50, lay at 3760 ± 220 nM. Moreover, the “Selectivity index S1” value in the data set on MDA-MBA-231 is 9.57 ± 0.22. In addition, in the data set on MCF-7, the IC50 worked out at 710 ± 10 nM, the Cell line selectivity result was “more selective to MCF-7 than MDA-MBA-231; also recorded: MCF-7 selective” and the “Selectivity index S2” value is 5.29 ± 0.31.

On to `O=c1c2cc(F)ccc2nc(-c2ccc(F)cc2)n1N=Cc1ccc(O)cc1` [Compound 10g, 3-(4-Hydroxybenzylideneamino)-6-fluoro-2-(4-fluorophenyl) quinazolin-4(3H)-one], for which the melting point was in the range of 229 to 231 °C. This molecule also gave an IC50 in the data set with MDA-MBA-231 (Homo sapiens) of 2540 ± 230 nM. The “Selectivity index S1” value in the data set with MDA-MBA-231 is listed as 0.52 ± 0.07. In addition, in the data set with MCF-7, half-maximal inhibition (IC50) required 1320 ± 80 nM, the Cell line selectivity entry is recorded as “more selective to MCF-7 than MDA-MBA-231; also recorded: MCF-7 selective” and the “Selectivity index S2” value was determined as 1.92 ± 0.05.
